{"source": "patent US10905750B2", "about": "“GRP78 antagonist that block binding of receptor tyrosine kinase orphan receptors as immunotherapy anticancer agents” (CREATIVE BIOTHERAPEUTICS, LLC, priority 2017, dated 2021)", "key": {"panel of tumor cells": {"system": "panel of tumor cells", "test": "Tumor cell proliferation assay 72 hours, whole panel", "assay_type": "cell-based", "conditions": "in words", "description": "(§1) For the proliferation assay, cells were plated in 96 well plates at approximately 3000 cells per well overnight. The media was removed and fresh media with 1% FBS containing 10 μg/ml GRP78 was added along with the GRP78 antagonists. The plates were incubated for 72 hours at 37 C in 8% CO2. After 72 hours, cell number was determined with a WST-8 cell proliferation kit (Sigma). […] The only tumor cell line tested to not be inhibited by GRP78 antagonists was HT29, a colon carcinoma cell line. From our previous data above, we know U87 and D54 have ROR1 expressed on their cell surfaces."}, "[1]": {"system": "MDA231 breast carcinoma cells", "test": "Tumor cell proliferation assay 72 hours, MDA231", "assay_type": "cell-based", "description": "as §1"}, "[2]": {"system": "GRP78 treated dendritic cells", "test": "Tolerogenic phenotype of GRP78 treated dendritic cells (flow cytometry, IL-10 ELISA)", "assay_type": "cell-based, human", "conditions": "for maturity marker CD86 on DCs exposed to GRP78/LPS: FIG. 13; for activity for reversing the tolerogenic phenotype of dendritic cells induced by GRP78: dose dependent, in words; for potency in blocking B7H3 on DCs exposed to GRP78, relative to K5: flow cytometry, FIG. 9A", "description": "Consequently surface GRP78 binding on tumor cells leads to chemo-resistance and proliferation. […] Immature dendritic cells were differentiated from isolated CD14^+ myeloid cells with the addition of GM-CSF and IL-4 for 7 days. GRP78 (10 μg/ml) was added to the cells to produce a tolerogenic phenotype showing up regulation of PD-L1, B7H4, B7H3, IL-10 and down regulation of CD86. Therefore our GRP78 antagonists can potently block the activity of GRP78 on dendritic cells.\nFIG. 9A-9C illustrates increasing amounts of the GRP78 antagonists result in blocking GRP78 which reduces checkpoint protein expression on DCs. A tolerogenic dendritic cell phenotype is induced by soluble GRP78 binding. Myeloid CD14+ cells were co-stimulated for 7 days with IL-4, and GMCSF. On day 5 LPS along with or without GRP78 and GRP78 antagonists were added. On day 8, dendritic cells were fixed and stained for flow cytometry. The percent of B7H3, PD-L1, CD86 was measured by flowcytometry and compared to GRP78 untreated dendritic cells.\nTo determine if GRP78 antagonists can block the tolerogenic phenotype of GRP78 treated dendritic cells, we differentiated immature dendritic cells. From 20 million human pooled PBMCs (AllCells), we isolated about 2.5 million CD14+ monocytes using positive selection with a pluribead CD14 kit (Pluriselect). […] From our multiple studies, we can isolate about 2.5 million CD14+ monocytes from 20 million PBMCs using positive selection with pluribeads (Pluriselect). […] On day 8, cells were fixed and aliquots stained at 4 C for various tolerogenic DC markers: PD-I([…]), B7H4, […], CD86, CD14, ROR1. Stained cells were analyzed byflow cytometry analysis. All antibodies for the DC markers were PE labeled from BD PharMingen. The cytokine, IL-10 (ENZO Life Sciences), was assayed by ELISA (Sigma). Negative controls wells were with GRP78 and positive controls are without GRP78 but with LPS. […] All of these antagonists decreased expression of PD-L1, B7H4, B7H3, and IL-10 from mature dendritic cells and increased expression of the maturity marker CD86 on dendritic cells (FIGS. 9A-9C)."}, "293 Kidney fibroblasts": {"system": "293 Kidney fibroblasts", "test": "Proliferation assay 72 hours, 293 kidney normal cells", "assay_type": "cell-based, human", "description": "as §1"}, "[3]": {"system": "HT29 colon carcinoma cells", "test": "Tumor cell proliferation assay 72 hours, HT29", "assay_type": "cell-based", "description": "as §1"}, "D54 glioma cells": {"system": "D54 glioma cells", "test": "Tumor cell proliferation assay 72 hours, D54", "assay_type": "cell-based", "description": "as §1"}, "GRP78": {"target": "T1, GRP78 (Homo sapiens, UniProt P11021)", "T1 construct": "purchased StressMarq", "T1 sequence (P11021 19-654, species assumed)": "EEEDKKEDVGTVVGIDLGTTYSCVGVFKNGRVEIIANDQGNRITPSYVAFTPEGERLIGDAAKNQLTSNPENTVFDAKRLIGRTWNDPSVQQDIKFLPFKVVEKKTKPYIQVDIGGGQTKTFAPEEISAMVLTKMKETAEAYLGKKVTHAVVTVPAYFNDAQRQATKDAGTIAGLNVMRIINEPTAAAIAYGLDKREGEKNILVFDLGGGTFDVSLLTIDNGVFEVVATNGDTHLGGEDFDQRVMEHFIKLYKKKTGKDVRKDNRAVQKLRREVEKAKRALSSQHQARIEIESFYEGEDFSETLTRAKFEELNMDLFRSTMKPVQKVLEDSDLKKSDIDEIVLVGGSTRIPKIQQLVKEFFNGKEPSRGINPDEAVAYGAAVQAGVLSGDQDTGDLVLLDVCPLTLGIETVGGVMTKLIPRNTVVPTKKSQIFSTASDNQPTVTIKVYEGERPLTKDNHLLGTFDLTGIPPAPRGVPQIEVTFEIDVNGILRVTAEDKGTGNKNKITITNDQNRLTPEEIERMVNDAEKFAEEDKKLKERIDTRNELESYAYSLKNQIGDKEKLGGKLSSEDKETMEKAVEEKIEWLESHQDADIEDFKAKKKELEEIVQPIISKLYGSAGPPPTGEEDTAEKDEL", "test": "GRP78 ELISA, direct binding of biotin-labelled kringles", "conditions": "FIG. 19A", "source_text": "Recombinant K5-fragment biotin and Kr1 fragment-biotin were used for binding. Neutra-avidin-HRP was used to detect binding after washing with PBS.\nTo determine if ROR1 is expressed on immature dendritic cells, CD14^+ cells were isolated from human PBMCs and cultured in GM-CSF, and IL-4 for 7 days to produce immature DCs. […] This flow cytometry analysis supports the hypothesis that immature dendritic cells express ROR1 in which the ROR1 kringle domain binds to GRP78.\nComparison of GRP78 binding for the two kringle domains was performed by a GRP78 ELISA. GRP78 (StressMarq) (1 ug/ml@ 100 μl/well) was bound to a tissue culture coated 96 well plate overnight at 4° C. After washing 3× with PBS, the plates were blocked with superblock (Pierce) for 1 hour at room temperature. […] The plate was then washed 3× with PBS again and Neutra-avidin-HRP was added to the wells for 1 hour at room temperature. The wells were washed again with PBS and one step TMB (Pierce) was added to the wells with absorbance recorded after 30 minutes to measure kringle binding. […] To analyze these peptides for binding to GRP78, we used a 96 well competition binding assay. The assay consisted of binding GRP78 to a tissue coated 96 well plate as listed above. […] After the plate was washed, Neutra-avidin-HRP was added and bound K5 was measured by adding HRP substrate, TMB, as listed above."}, "U87 glioma cells": {"system": "U87 glioma cells", "test": "Tumor cell proliferation assay 72 hours, U87", "assay_type": "cell-based", "description": "as §1"}, "[4]": {"system": "Calu 6 lung carcinoma cells", "test": "Tumor cell proliferation assay 72 hours, Calu 6", "assay_type": "cell-based", "description": "as §1"}, "[5]": {"system": "BT549 human breast cancer cells", "test": "WST-8 proliferation assay, BT549 (5 day)", "assay_type": "cell-based", "conditions": "BT-549, 120 h, GRP78 10 ug/ml, 5 days, read-out: Proliferation Inhibition (5 day) IC50, Breast Cancer BT549", "description": "The inhibition effect of GRP78 antagonist on metastatic triple-negative, chemo-resistant BT549 cells was assessed using a proliferation assay."}, "[6]": {"system": "chemo-resistant colon cancer cells (DLD-1)", "test": "WST-8 proliferation assay, DLD-1 (5 day)", "assay_type": "cell-based", "conditions": "Homo sapiens, DLD-1, 120 h; GRP78 10 ug/ml, 5 days; read-out: Proliferation Inhibition (5 day) IC50, Colon Cancer DLD-1"}, "[7]": {"system": "mouse breast cancer cells, 4T1", "test": "WST-8 proliferation assay, 4T1 (5 day)", "assay_type": "cell-based", "conditions": "120 h, GRP78 10 ug/ml, 5 days, read-out: Proliferation Inhibition (5 day) IC50, Mouse Breast Cancer 4T1"}, "ROR1 binding to GRP78": {"target": "T2, ROR1 binding to GRP78 (Homo sapiens, UniProt P11021)", "T2 construct": "purchased StressMarq; host or cells: ROR1 is endogenous, from D54 glioma cell lysate", "T2 sequence (P11021 19-654)": "as the sequence (P11021 19-654, species assumed) above", "test": "Immunoprecipitation of ROR1 using GRP78-Biotin from D54 glioma cell lysate", "conditions": "D54 glioma cell-surface lysate, 100 nM, FIG. 5", "source_text": "The use of GRP78/ROR1 antagonists to break immune tolerance for the treatment of resistant cancers represents a major shift in cancer therapies. Few, if any, current anti-cancer therapies have anti-angiogenic, anti-tumor and immune modulatory activities similar to modified ROR1, ROR2, and K5 kringle domains. To understand what pathways could be responsible for these activities in tumor and dendritic cells, we used GRP78 binding and crosslinking pull down studies against the cell surface proteome of D54 glioma cells and dendritic cells. We have identified that ROR1 and ROR2 as a cell GRP78 surface receptor.\nSince the mechanism of action is inconclusive for soluble, surface bound GRP78, we decided to identify the surface receptor for GRP78 on glioma (D54) cells. Using GRP78 (StressMarq) labeled with Biotin (Sigma, Mix-n-Match), pull down experiments were performed. 2×10(6) D54 glioma cells were grown in a T25 cm flask with full DMEM media overnight. The next day the media was removed and the cells were washed with ice cold PBS. To the attached cells ice cold octyl-lysis buffer (Pierce detergent cell lysis kit) was added and the cells were scrapped off and incubated in a tube with gentle agitation at 4 C for 60 minute. The microcentrifuge tube was centrifuged at 12,000×g for 20 minutes. The supernatant was gently removed and placed on ice. […]"}, "[8]": {"conditions": "listed as Kr1(1-91 Active Zone)frag SEQ ID NO: 19"}}, "note": "Entries after “also recorded” stand apart in the source; their conditions may differ."}
{"molecule": "Kr1(1-91 Active Zone)frag SEQ ID NO:19: ROR1 kringle domain (amino acids 308-400 ROR1), expressed in 293T cells", "values": [{"measurement": "inhibition of tumor cell proliferation", "setting": "panel of tumor cells", "result": "potent dose response inhibition"}, {"measurement": "potency of inhibition of tumor cell proliferation relative to K5", "setting": "panel of tumor cells", "result": "several fold more potent"}, {"measurement": "% Proliferation Inhibition", "setting": "[1]; MDA231, 0.1 μg/ml", "result": "33 ± 8", "unit": "%"}, {"measurement": "% Proliferation Inhibition", "setting": "[1]; MDA231, 1 μg/ml", "result": "63 ± 12", "unit": "%"}, {"measurement": "% Proliferation Inhibition", "setting": "[1]; MDA231, 10 μg/ml", "result": "86 ± 10", "unit": "%"}, {"measurement": "IL-10 expression of tolerogenic dendritic cells", "setting": "[2]; 100 nM, FIG. 10", "result": "elimination of IL-10 expression"}, {"measurement": "maturity marker CD86 on DCs exposed to GRP78/LPS", "setting": "[2]", "result": "completely reverses; also recorded: increases in the maturity marker CD86"}, {"measurement": "maturity marker CD86 on DCs exposed to GRP78/LPS", "setting": "[2]; [8]", "result": "increases in the maturity marker CD86"}, {"measurement": "activity for reversing the tolerogenic phenotype of dendritic cells induced by GRP78", "setting": "[2]", "result": "potent nM activity"}, {"measurement": "activity for reversing the tolerogenic phenotype of dendritic cells induced by GRP78", "setting": "[2]; [8]", "result": "reverses"}, {"measurement": "potency in blocking B7H3 on DCs exposed to GRP78, relative to K5", "setting": "[2]", "result": "at least 65 times"}, {"measurement": "potency in blocking B7H3 on DCs exposed to GRP78, relative to K5", "setting": "[2]; [8]", "result": "more potent"}, {"measurement": "percentage of B7H4+ marker on GRP78 treated DCs", "setting": "[2]; increasing concentrations, FIGS. 11, 12", "result": "decreasing percentages"}, {"measurement": "% Proliferation Inhibition", "setting": "293 Kidney fibroblasts; 0.1 μg/ml", "result": "0 ± 5", "unit": "%"}, {"measurement": "% Proliferation Inhibition", "setting": "293 Kidney fibroblasts; 1 μg/ml", "result": "0 ± 6", "unit": "%"}, {"measurement": "% Proliferation Inhibition", "setting": "293 Kidney fibroblasts; 10 μg/ml", "result": "0 ± 7", "unit": "%"}, {"measurement": "% Proliferation Inhibition", "setting": "[3]; HT29, 0.1 μg/ml", "result": "0 ± 8", "unit": "%"}, {"measurement": "% Proliferation Inhibition", "setting": "[3]; HT29, 1 μg/ml", "result": "10 ± 9", "unit": "%"}, {"measurement": "% Proliferation Inhibition", "setting": "[3]; HT29, 10 μg/ml", "result": "0 ± 5", "unit": "%"}, {"measurement": "% Proliferation Inhibition", "setting": "D54 glioma cells; D54, 0.1 μg/ml", "result": "15 ± 3", "unit": "%"}, {"measurement": "% Proliferation Inhibition", "setting": "D54 glioma cells; D54, 1 μg/ml", "result": "52 ± 6", "unit": "%"}, {"measurement": "% Proliferation Inhibition", "setting": "D54 glioma cells; D54, 10 μg/ml", "result": "85 ± 3", "unit": "%"}, {"measurement": "binding range to GRP78", "setting": "GRP78", "result": "pM range"}, {"measurement": "% Proliferation Inhibition", "setting": "U87 glioma cells; U87, 0.1 μg/ml", "result": "12 ± 7", "unit": "%"}, {"measurement": "% Proliferation Inhibition", "setting": "U87 glioma cells; U87, 1 μg/ml", "result": "45 ± 7", "unit": "%"}, {"measurement": "% Proliferation Inhibition", "setting": "U87 glioma cells; U87, 10 μg/ml", "result": "82 ± 8", "unit": "%"}, {"measurement": "% Proliferation Inhibition", "setting": "[4]; Calu 6, 0.1 μg/ml", "result": "14 ± 2", "unit": "%"}, {"measurement": "% Proliferation Inhibition", "setting": "[4]; Calu 6, 1 μg/ml", "result": "31 ± 5", "unit": "%"}, {"measurement": "% Proliferation Inhibition", "setting": "[4]; Calu 6, 10 μg/ml", "result": "60 ± 5", "unit": "%"}]}
{"molecule": "COc1cccc2c1C(=O)c1c(O)c3c(c(O)c1C2=O)C[C@@](O)(C(=O)CO)C[C@@H]3O[C@H]1C[C@H](N)[C@H](O)[C@H](C)O1", "note": "[Doxorubicin]", "values": [{"measurement": "IC50", "setting": "[5]", "result": 2440, "unit": "nM"}, {"measurement": "IC50", "setting": "[6]", "result": 7, "unit": "nM"}, {"measurement": "IC50", "setting": "[7]", "result": 7, "unit": "nM"}]}
{"molecule": "unfolded K5: unfolded K5(3-89 Active Zone)frag SEQ ID NO:1 kringle, control (protein, unfolded; Synthetic Peptide K5(3-89 Active Zone)) SEEDCMFGNGKGYRGKRATTVTGTPCQDWAAQEPHRHSIFTPETNPRAGLEKNYCRNPDGDVGGPWCYTTNPRKLYDYCDVPQCAAPKS", "values": [{"measurement": "blocking of immunoprecipitation of ROR1 using GRP78", "setting": "ROR1 binding to GRP78", "result": "not"}]}
